Results on 38 compounds are retold here after US6150385A, “1,3,4-thiadiazoles useful for the treatment of CMV infections” (Pharmacia & Upjohn Company, priority 1999, dated 2000).

Usually inhibition stands for the change of the read-out against control, counted positive when it falls.

The target in this assay is T1, HCMV polymerase (Human cytomegalovirus, UniProt P08546).
T1 construct: made in house; host or cells: SF-9 insect cells infected with recombinant baculovirus
T1 sequence (P08546 whole entry): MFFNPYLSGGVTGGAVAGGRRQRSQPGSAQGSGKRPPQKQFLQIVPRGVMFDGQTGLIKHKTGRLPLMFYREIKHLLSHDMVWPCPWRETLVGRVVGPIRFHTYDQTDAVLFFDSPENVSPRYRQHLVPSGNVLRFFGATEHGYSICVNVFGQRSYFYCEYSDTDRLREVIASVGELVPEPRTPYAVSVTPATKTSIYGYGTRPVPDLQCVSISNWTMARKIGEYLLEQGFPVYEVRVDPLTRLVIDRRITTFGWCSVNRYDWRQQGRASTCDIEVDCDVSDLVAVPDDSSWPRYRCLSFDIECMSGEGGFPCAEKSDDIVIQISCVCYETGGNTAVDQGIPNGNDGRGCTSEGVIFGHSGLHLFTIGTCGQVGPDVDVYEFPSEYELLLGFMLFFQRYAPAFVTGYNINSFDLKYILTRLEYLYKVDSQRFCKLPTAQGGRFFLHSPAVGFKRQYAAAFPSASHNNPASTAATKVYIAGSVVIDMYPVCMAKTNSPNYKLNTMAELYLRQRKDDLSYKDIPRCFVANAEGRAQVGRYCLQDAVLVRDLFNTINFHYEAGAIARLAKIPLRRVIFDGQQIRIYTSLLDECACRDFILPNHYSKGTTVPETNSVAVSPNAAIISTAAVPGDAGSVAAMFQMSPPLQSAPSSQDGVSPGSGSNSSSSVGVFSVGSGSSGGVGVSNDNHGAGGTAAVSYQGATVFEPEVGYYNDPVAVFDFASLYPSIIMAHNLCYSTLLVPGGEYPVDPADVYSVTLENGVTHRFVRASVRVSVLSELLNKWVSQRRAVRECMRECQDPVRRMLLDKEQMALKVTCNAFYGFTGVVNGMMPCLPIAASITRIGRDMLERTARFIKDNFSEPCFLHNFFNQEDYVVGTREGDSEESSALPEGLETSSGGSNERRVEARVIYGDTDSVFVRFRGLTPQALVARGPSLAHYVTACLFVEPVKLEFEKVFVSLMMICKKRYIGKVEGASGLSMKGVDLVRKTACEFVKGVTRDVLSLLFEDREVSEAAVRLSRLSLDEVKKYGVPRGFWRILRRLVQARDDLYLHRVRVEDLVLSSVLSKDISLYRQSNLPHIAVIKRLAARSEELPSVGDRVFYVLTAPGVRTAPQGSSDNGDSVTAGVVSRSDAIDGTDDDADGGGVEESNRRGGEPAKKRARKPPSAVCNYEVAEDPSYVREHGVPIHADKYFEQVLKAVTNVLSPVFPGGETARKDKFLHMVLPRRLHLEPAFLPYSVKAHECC
As to the kind of experiment: HCMV polymerase assay (scintillation proximity assay). The format is biochemical. The conditions noted are these: percentage of inhibition at 25 μM concentration in CMV polymerase assay. In short, it runs like this: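 Values are percent inhibition at 25 μM, measured by scintillation proximity after capture of biotinylated poly(dA)-oligo(dT) (6 nM) extended with 90 nM 3H-dTTP. Recombinant SF-9-derived enzyme reacted 30 min at 25 or 37 °C in HEPES pH 7.5/KCl/MgCl2/BSA buffer, ±2 mM CHAPS, before EDTA termination.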
(In general: SPA uses beads or plates that emit light when radiolabelled molecules are held near them.)
`O=C(Nc1nnc(NCc2ccc(F)cc2)s1)c1c(Cl)cccc1Cl` [compound 144, 2,6-dichloro-N-{5-[(4-fluorobenzyl)amino]-1,3,4-thiadiazol-2-yl}benzamide] gave an inhibition at 25 µM of 55.2%.

Take `CCCCCCCC/C=C/CCCCCCCC(=O)Nc1nnc(NC2CC2)s1` [compound 28, (E)-N-[5-(cyclopropylamino)-1,3,4-thiadiazol-2-yl]-9-octadecenamide]: testing at 25 µM gave an inhibition of 92.6%. For the compound `CCCCCCCC/C=C/CCCCCCCC(=O)Nc1nnc(NCc2ccc(Cl)c(Cl)c2)s1` [compound 313, (E)-N-{5-[(3,4-dichlorobenzyl)amino]-1,3,4-thiadiazol-2-yl}-9-octadecenamide], at 25 µM the inhibition was 33.9%. `NS(=O)(=O)c1ccc(CCNc2nnc(NC(=O)/C=C/c3ccccc3)s2)cc1` [compound 50, (E)-N-(5-{[4-(aminosulfonyl)phenethyl]amino}-1,3,4-thiadiazol-2-yl)-3-phenyl-2-propenamide]: the inhibition at 25 µM was determined as 79.8%. Regarding `CCCCCCCC/C=C/CCCCCCCC(=O)Nc1nnc(NCCc2ccc(S(N)(=O)=O)cc2)s1` [compound 336, (E)-N-(5-{[4-(aminosulfonyl)phenethyl]amino}-1,3,4-thiadiazol-2-yl)-9-octadecenamide], the inhibition at 25 µM came to 31.6%. The same measure, in the same setting: in the case of `O=C(Nc1nnc(NCCc2c[nH]cn2)s1)c1c(Cl)cccc1Cl` [compound 448, 2,6-dichloro-N-(5-{[2-(1H-imidazol-4-yl)ethyl]amino}-1,3,4-thiadiazol-2-yl)benzamide] it was 21.6%; in that of `CCCCCCCC/C=C/CCCCCCCC(=O)Nc1nnc(NCc2ccco2)s1` [compound 238, (E)-N-{5-[(2-furylmethyl)amino]-1,3,4-thiadiazol-2-yl}-9-octadecenamide], 41.5%. Same read-out and setting: the figure for `NS(=O)(=O)c1ccc(CCNc2nnc(NC(=O)c3ccc(Cl)c(Cl)c3)s2)cc1` [compound 142, N-(5-{[4-(aminosulfonyl)phenethyl]amino}-1,3,4-thiadiazol-2-yl)-3,4-dichlorobenzamide] is 55.4%. Turning to `CCCCCCCC/C=C/CCCCCCCC(=O)Nc1nnc(NCc2ccc(OC)c(OC)c2)s1` [compound 100, (E)-N-{5-[(3,4-dimethoxybenzyl)amino]-1,3,4-thiadiazol-2-yl}-9-octadecenamide], the inhibition at 25 µM turned out to be 65.1%.

In turn, `CCSCCNc1nnc(NC(=O)c2ccc(Cl)c(Cl)c2)s1` [compound 447, 3,4-dichloro-N-(5-{[2-(ethylsulfanyl)ethyl]amino]-1,3,4-thiadiazol-2-yl)benzamide] came in with an inhibition at 25 µM of 21.6%. In turn, `CCCCCCCCCCCNc1nnc(NC(=O)c2ccc([N+](=O)[O-])o2)s1` [compound 60, 5-nitro-N-[5-(undecylamino)-1,3,4-thiadiazol-2-yl]-2-furamide] gave an inhibition at 25 µM of 74.5%. Consider `O=C(Nc1nnc(NCCc2ccccc2)s1)c1ccc(S(=O)(=O)F)cc1` [compound 472, 4-({[5-(phenethylamino)-1,3,4-thiadiazol-2-yl]amino}carbonyl)benzenesulfonyl fluoride], for which the “% Inhib” value is listed as 20.0%. As to `CC(=O)NCCNc1nnc(NC(=O)/C=C/c2ccccc2)s1` [compound 400, (E)-N-(5-{[2-(acetylamino)ethyl]amino}-1,3,4-thiadiazol-2-yl)-3-phenyl-2-propenamide], the inhibition at 25 µM came to 25.8%.

Regarding `O=C(Nc1nnc(NCCCCc2ccccc2)s1)c1ccc(S(=O)(=O)F)cc1` [compound 245, 4-[({5-[(4-phenylbutyl)amino]-1,3,4-thiadiazol-2-yl}amino)carbonyl]benzenesulfonyl fluoride], the “% Inhib” value was 41.0%. Regarding `O=C(Nc1nnc(NCCC(c2ccccc2)c2ccccc2)s1)c1ccc(Br)cc1` [compound 386, 4-bromo-N-{5-[(3,3-diphenylpropyl)amino]-1,3,4-thiadiazol-2-yl}benzamide], the inhibition at 25 µM was found to be 26.9%. In the case of `O=C(Nc1nnc(NCc2cccc3ccccc23)s1)c1ccc(F)cc1F` [compound 363, 2,4-difluoro-N-{5-[(1-naphthylmethyl)amino]-1,3,4-thiadiazol-2-yl}benzamide], the inhibition at 25 µM is 28.8%. As to `O=C(Nc1nnc(NCCCN2CCCC2=O)s1)c1ccc2c(c1)C(=O)OC2=O` [compound 184, 1,3-dioxo-N-(5-{[3-(2-oxo-1-pyrrolidinyl)propyl]amino}-1,3,4-thiadiazol-2-yl)-1,3-dihydro-2-benzofuran-5-carboxamide], at 25 µM the inhibition was 47.8%. The same measure, in the same setting: in the case of `NS(=O)(=O)c1ccc(CNc2nnc(NC(=O)c3cc4ccccc4s3)s2)cc1` [compound 223, N-(5-{[4-(aminosulfonyl)benzyl]amino}-1,3,4-thiadiazol-2-yl)-1-benzothiophene-2-carboxamide] it was 43.1%. On the same count and under the same terms, in the case of `CCCCCCCCCCCNc1nnc(NC(=O)c2ccc(C#N)cc2)s1` [compound 65, 4-cyano-N-[5-(undecylamino)-1,3,4-thiadiazol-2-yl]benzamide] it was 72.2%; in that of `O=C(Nc1nnc(NCc2cccs2)s1)c1ccc2c(c1)C(=O)OC2=O` [compound 39, 1,3-dioxo-N-{5-[(2-thienylmethyl)amino]-1,3,4-thiadiazol-2-yl}-1,3-dihydro-2-benzofuran-5-carboxamide], 87.1%.

Compound `CCCCCCCCCCCNc1nnc(NC(=O)c2cc(F)cc(F)c2)s1` [compound 175, 3,5-difluoro-N-[5-(undecylamino)-1,3,4-thiadiazol-2-yl]benzamide] gave an inhibition at 25 µM of 49.4%. Turning to `NS(=O)(=O)c1ccc(CNc2nnc(NC(=O)c3ccc(C(F)(F)F)cc3)s2)cc1` [compound 398, N-(5-{[4-(aminosulfonyl)benzyl]amino}-1,3,4-thiadiazol-2-yl)-4-(trifluoromethyl)benzamide], the inhibition at 25 µM came out at 25.9%.

For `O=C(Nc1nnc(NCC(c2ccccc2)c2ccccc2)s1)c1cc(F)cc(F)c1` [compound 188, N-{5-[(2,2-diphenylethyl)amino]-1,3,4-thiadiazol-2-yl}-3,5-difluorobenzamide], the inhibition at 25 µM worked out at 47.2%. The same measure, in the same setting: the figure for `O=C(Nc1nnc(NCCSc2ccccc2)s1)c1ccc(I)cc1` [compound 198, 4-iodo-N-(5-{[2-(phenylsulfanyl)ethyl]amino}-1,3,4-thiadiazol-2-yl)benzamide] is 46%; for `CCCCCCCC/C=C/CCCCCCCC(=O)Nc1nnc(NCc2ccc(S(N)(=O)=O)cc2)s1` [compound 18, (E)-N-(5-{[4-(aminosulfonyl)benzyl]amino}-1,3,4-thiadiazol-2-yl)-9-octadecenamide] it is 98.3%. Same read-out and setting: in the case of `O=C(Nc1nnc(NCCCNC2CCCCC2)s1)c1cc2ccccc2s1` [compound 62, N-(5-{[3-(cyclohexylamino)propyl]amino}-1,3,4-thiadiazol-2-yl)-1-benzothiophene-2-carboxamide] it was 74%; in that of `O=C(Nc1nnc(NCCSc2ccccc2)s1)c1ccc(F)cc1F` [compound 205, 2,4-difluoro-N-(5-{[2-(phenylsulfanyl)ethyl]amino}-1,3,4-thiadiazol-2-yl)benzamide], 44.9%; in that of `CCCCCCCCCCCNc1nnc(NC(=O)c2c(OCC)ccc3ccccc23)s1` [compound 145, 2-ethoxy-N-[5-(undecylamino)-1,3,4-thiadiazol-2-yl]-1-naphthamide], 54.9%. On the same count and under the same terms, in the case of `O=C(Nc1nnc(NCCCCc2ccccc2)s1)c1ccc(C(F)(F)F)cc1` [compound 138, N-{5-[(4-phenylbutyl)amino]-1,3,4-thiadiazol-2-yl}-4-(trifluoromethyl)benzamide] it was 56.2%; in that of `CC(C)c1cc(C(C)C)c(C(=O)Nc2nnc(NCCN3CCCC3)s2)c(C(C)C)c1` [compound 169, 2,4,6-triisopropyl-N-(5-{[2-(1-pyrrolidinyl)ethyl]amino}-1,3,4-thiadiazol-2-yl)benzamide], 50.7%; in that of `O=C(Nc1nnc(NCCCN2CCCC2=O)s1)c1ccc(Cl)c(Cl)c1` [compound 191, 3,4-dichloro-N-(5-{[3-(2-oxo-1-pyrrolidinyl)propyl]amino}-1,3,4-thiadiazol-2-yl)benzamide], 47.1%. In turn, `O=C(/C=C/c1ccccc1Cl)Nc1nnc(NC2CCCCCC2)s1` [compound 196, (E)-3-(2-chlorophenyl)-N-[5-(cycloheptylamino) 1,3,4-thiadiazol-2-yl]-2-propenamide] yielded an inhibition at 25 µM of 46.2%. The same measure, in the same setting: in the case of `O=C(Nc1nnc(NCC(c2ccccc2)c2ccccc2)s1)c1ccc(Br)cc1` [compound 385, 4-bromo-N-{5-[(2,2-diphenylethyl)amino]-1,3,4-thiadiazol-2-yl}benzamide] it was 27.2%. On the same count and under the same terms, the figure for `O=C(Nc1nnc(NCC2CCCCC2)s1)c1ccc2c(c1)C(=O)OC2=O` [compound 3, N-{5-[(cyclohexylmethyl)amino]-1,3,4-thiadiazol-2-yl}-1,3-dioxo-1,3-dihydro-2-benzofuran-5-carboxamide] is 100%.

Compound `CCCCCCCC/C=C/CCCCCCCC(=O)Nc1nnc(NCC2CCCCC2)s1` [compound 285, (E)-N-{5-[(cyclohexylmethyl)amino]-1,3,4-thiadiazol-2-yl}-9-octadecenamide] displayed an inhibition at 25 µM of 36.7%. The same measure, in the same setting: the figure for `NS(=O)(=O)c1ccc(CNc2nnc(NC(=O)c3ccc(I)cc3)s2)cc1` [compound 57, N-(5-{[4-(aminosulfonyl)benzyl]amino}-1,3,4-thiadiazol-2-yl)-4-iodobenzamide] is 76.3%; for `O=C(Nc1nnc(NCCC(c2ccccc2)c2ccccc2)s1)c1ccc(I)cc1` [compound 297, N-{5-[(3,3-diphenylpropyl)amino]-1,3,4-thiadiazol-2-yl}-4-iodobenzamide] it is 35%.

`N#Cc1ccc(C(=O)Nc2nnc(NCCCCc3ccccc3)s2)cc1` [compound 143, 4-cyano-N-{5-[(4-phenylbutyl)amino]-1,3,4-thiadiazol-2-yl}benzamide]: the inhibition at 25 µM was determined as 55.4%.
